Experiments:
HL60 cells = assay: HL60 cell killing experiment (CellTiter-Glo cell viability); type: cell-based; conditions: Homo sapiens, HL-60, 48 h incubation, CTG luminescence
Protocol: HL60 cell lines were purchased from ATCC (Cat #ATCC® CCL-240™), IMDM media were purchased from ATCC (Cat #ATCC® 30-2005™), FBS was purchased from Gibco (Cat #10091148), celltiter-glo luminescent cell viability assay was purchased from promega (Cat #G7572), and 96-well plates were purchased from corning (Cat #3610).
The effect of compounds on the growth of HL60 cells was determined by measuring cell viability. Firstly, cells in the logarithmic growth phase were collected and centrifuged, and the culture supernatant was discarded. The centrifuged cells were resuspended in a fresh complete medium, and the cell density was adjusted to 5×10^4 cells/mL. The resuspended cells were inoculated into two opaque 96-well cell culture plates at 100 μL of cell suspension per well, and the cell culture plates were incubated in a cell incubator at 37° C. for 4 h. After 4 h, dilutions (20 μL) of compounds with different concentrations were added. After one of the cell plates was cooled to room temperature, 60 μL of CTG reagent was added, and the luminescence values were read on the instrument as G0. The other one was incubated in a cell incubator for 48 h. After 48 h, 60 μL of CTG reagent was added, and the luminescence values were read on the instrument as G3.
According to the corresponding proliferation rate and concentration of each gradient concentration well, a gradient curve of cell proliferation was fitted using XLFit software, and the GI50 values of compounds were calculated.

GSPT1 = target: T1, GSPT1 (Homo sapiens, UniProt P15170+Q96SW2); assay: Degradation of GSPT1 by the compounds (HiBiT signal in GSPT1/HEK293 hibit cells); type: cell-based; conditions: 6 h incubation, Nano Glo HiBiT Lytic Detection
T1 construct: host or cells: HEK293
Protocol: GSPT1/HEK293 hibit cell lines were constructed by Shanghai BioDuro Co., Ltd., HEK293 cell lines were purchased from ATCC (Cat #ATCC® CRL-1573™), DMEM media were purchased from ATCC (Cat #ATCC® 30-2002™), FBS was purchased from Gibco (Cat #10091148), Nano Glo HiBiT Lytic Detection System was purchased from Promega (Cat #N3040), and 96-well plates were purchased from coming (Cat #3610).
The degradation of GSPT1 by the compounds was determined by measuring the intensity of hibit signals in cells. Firstly, the cells were digested with pancreatin, and the digestion was then terminated with medium. The cells were centrifuged, and the supernatant was discarded. The centrifuged cells were resuspended in a fresh complete medium, and the cell density was adjusted to 2.5×10^4 cells/mL. The resuspended cells were inoculated into an opaque 96-well cell culture plate at 100 μL of cell suspension per well, and the cell culture plate was incubated in a cell incubator at 37° C. overnight. The next day, dilutions (20 μL) of compounds with different concentrations were added, and the plate was incubated in a cell incubator for 6 h. After 6 h, 60 μL of Nano Glo HiBiT Lytic Detection System reagent was added and the luminescence values were read on the instrument.
According to the corresponding degradation rate and concentration of each gradient concentration well, a gradient curve of degradation rate was fitted using XLFit software, and the DC50 values of compounds were calculated.

T1 sequence (P15170 whole entry): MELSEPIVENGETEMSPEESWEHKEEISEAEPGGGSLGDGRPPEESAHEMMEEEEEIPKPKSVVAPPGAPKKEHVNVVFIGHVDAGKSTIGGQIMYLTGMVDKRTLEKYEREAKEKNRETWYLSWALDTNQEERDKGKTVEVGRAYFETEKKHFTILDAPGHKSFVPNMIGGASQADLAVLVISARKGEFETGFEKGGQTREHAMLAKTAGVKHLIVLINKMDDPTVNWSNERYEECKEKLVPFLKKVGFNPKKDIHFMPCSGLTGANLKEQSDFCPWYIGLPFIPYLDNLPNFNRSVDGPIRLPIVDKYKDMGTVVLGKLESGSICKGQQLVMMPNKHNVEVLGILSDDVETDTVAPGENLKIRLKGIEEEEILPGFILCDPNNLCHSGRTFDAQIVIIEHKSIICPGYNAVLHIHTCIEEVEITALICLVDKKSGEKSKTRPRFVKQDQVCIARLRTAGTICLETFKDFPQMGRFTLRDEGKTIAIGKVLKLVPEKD
T1 sequence (Q96SW2 whole entry): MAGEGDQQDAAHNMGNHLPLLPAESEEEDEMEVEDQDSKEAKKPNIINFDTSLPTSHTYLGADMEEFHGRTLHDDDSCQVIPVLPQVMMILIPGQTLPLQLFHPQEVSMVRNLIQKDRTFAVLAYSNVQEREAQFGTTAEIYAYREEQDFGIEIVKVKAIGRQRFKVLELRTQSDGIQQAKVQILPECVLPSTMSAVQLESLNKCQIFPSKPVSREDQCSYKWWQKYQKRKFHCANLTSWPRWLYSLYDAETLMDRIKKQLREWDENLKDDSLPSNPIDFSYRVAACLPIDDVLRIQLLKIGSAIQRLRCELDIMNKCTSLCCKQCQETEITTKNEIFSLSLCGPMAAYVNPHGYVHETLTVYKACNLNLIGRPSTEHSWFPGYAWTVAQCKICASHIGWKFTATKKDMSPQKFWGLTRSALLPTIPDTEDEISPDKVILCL
T1 sequence (Q16531 whole entry partner): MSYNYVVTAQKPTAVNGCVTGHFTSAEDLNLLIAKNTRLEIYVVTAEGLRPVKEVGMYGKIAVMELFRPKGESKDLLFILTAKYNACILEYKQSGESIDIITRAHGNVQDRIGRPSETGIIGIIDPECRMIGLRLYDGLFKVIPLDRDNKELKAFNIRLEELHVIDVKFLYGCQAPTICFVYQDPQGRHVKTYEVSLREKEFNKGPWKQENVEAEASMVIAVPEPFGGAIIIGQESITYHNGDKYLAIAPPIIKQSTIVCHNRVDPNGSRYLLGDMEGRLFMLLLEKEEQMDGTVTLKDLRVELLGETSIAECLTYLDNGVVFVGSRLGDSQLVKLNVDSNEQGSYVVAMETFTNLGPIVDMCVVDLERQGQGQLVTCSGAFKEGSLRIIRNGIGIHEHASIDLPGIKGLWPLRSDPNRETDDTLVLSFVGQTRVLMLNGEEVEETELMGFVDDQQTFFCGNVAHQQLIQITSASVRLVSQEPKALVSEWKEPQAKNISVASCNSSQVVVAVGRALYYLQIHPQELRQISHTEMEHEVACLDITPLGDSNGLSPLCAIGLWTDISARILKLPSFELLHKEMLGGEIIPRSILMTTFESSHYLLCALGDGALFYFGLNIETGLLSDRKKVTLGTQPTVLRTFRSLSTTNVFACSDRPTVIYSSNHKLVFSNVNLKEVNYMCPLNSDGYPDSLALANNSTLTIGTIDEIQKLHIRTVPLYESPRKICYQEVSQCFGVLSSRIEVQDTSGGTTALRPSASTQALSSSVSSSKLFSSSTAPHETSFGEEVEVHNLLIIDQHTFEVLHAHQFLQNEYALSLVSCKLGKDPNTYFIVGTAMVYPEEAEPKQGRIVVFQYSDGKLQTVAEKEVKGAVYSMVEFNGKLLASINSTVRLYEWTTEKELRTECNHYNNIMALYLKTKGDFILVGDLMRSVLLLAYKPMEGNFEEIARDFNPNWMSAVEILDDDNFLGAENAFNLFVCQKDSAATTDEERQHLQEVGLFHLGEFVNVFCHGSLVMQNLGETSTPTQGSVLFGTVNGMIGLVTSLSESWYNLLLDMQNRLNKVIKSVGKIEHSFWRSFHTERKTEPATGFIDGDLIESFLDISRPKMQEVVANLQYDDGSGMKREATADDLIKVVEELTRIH

SMILES | GI50 (HL60 cells) [nM] | DC50 (GSPT1) [nM]
O=C1CCC(N2C(=O)c3cccc(NCc4cccc(C(=O)NC5CCC(c6nc7cccnc7[nH]6)CC5)c4)c3C2=O)C(=O)N1 (centres unmarked) [Example 18] | < 100 | < 100
O=C1CCC(N2C(=O)c3cccc(NCc4ccc(C(=O)NC5CCC(c6nc7c(cnc8[nH]cc(C9CCOCC9)c87)[nH]6)CC5)cc4)c3C2=O)C(=O)N1 (centres unmarked) [Example 116] | < 100 | < 100
Cn1c(C2CCC(NC(=O)CCCCNc3cccc4c3C(=O)N(C3CCC(=O)NC3=O)C4=O)CC2)nc2c3c(C4CCCCC4)c[nH]c3ncc21 (centres unmarked) [Example 110] | < 100 | < 100
O=C1CCC(N2C(=O)c3cccc(NCc4cccc(C(=O)NC5CCC(c6nc7ccncc7n6C6COC6)CC5)c4)c3C2=O)C(=O)N1 (centres unmarked) [Example 101] | < 100 | < 100
O=C1CCC(N2C(=O)c3cccc(NCc4ccc(F)c(C(=O)N[C@H]5CC[C@H](c6nc7cccnc7s6)CC5)c4)c3C2=O)C(=O)N1 (some centres unmarked) [Example 80] | < 100 | < 100
Cn1c(C2CCC(NC(=O)c3cc(CNc4cccc5c4C(=O)N(C4CCC(=O)NC4=O)C5=O)ccn3)CC2)nc2ccncc21 (centres unmarked) [Example 23] | < 100 | < 100
Cn1c2cc(N)ccc2nc1[C@H]1CC[C@H](NC(=O)c2cc(CNc3cccc4c3C(=O)N(C3CCC(=O)NC3=O)C4=O)ccn2)CC1 (some centres unmarked) [Example 130] | < 100 | < 100
O=C1CCC(N2C(=O)c3cccc(NCc4ccc5cn([C@H]6CC[C@H](c7nc8cccnc8s7)CC6)nc5c4)c3C2=O)C(=O)N1 (some centres unmarked) [Example 38] | < 100 | < 100
O=C1CCC(N2C(=O)c3cccc(NCc4cccc(C(=O)NC5CCC(c6cc7ccncc7s6)CC5)c4)c3C2=O)C(=O)N1 (centres unmarked) [Example 50] | < 100 | < 100
O=C1CCC(N2C(=O)c3cccc(NCc4cccc(C(=O)NC5CCC(c6nc7c(cnc8[nH]cc(C9CCOCC9)c87)[nH]6)CC5)c4)c3C2=O)C(=O)N1 (centres unmarked) [Example 115] | < 100 | < 100
Cn1c2ncccc2nc1[C@H]1CC[C@H](NC(=O)c2cc(CNc3cccc4c3C(=O)N(C3CCC(=O)NC3=O)C4=O)ccn2)CC1 (some centres unmarked) [Example 43] | < 100 | < 100
Cn1c(C2CC3(CC(NC(=O)c4cccc(CNc5cccc6c5C(=O)N(C5CCC(=O)NC5=O)C6=O)c4)C3)C2)nc2ccncc21 (centres unmarked) [Example 69] | < 100 | < 100
O=C1CCC(N2C(=O)c3cccc(NCc4cccc(NC(=O)[C@H]5CC[C@H](c6nc7cccnc7s6)CC5)n4)c3C2=O)C(=O)N1 (some centres unmarked) [Example 62] | < 100 | < 100
O=C1CCC(N2C(=O)c3cccc(NCc4cccc(NC(=O)[C@H]5CC[C@H](c6nc7cccnc7s6)CC5)c4)c3C2=O)C(=O)N1 (some centres unmarked) [Example 59] | < 100 | < 100
O=C1CCC(N2C(=O)c3cccc(NCc4cccc(C(=O)NC5CCC(c6n[nH]c7ccccc67)CC5)c4)c3C2=O)C(=O)N1 (centres unmarked) [Example 14] | < 100 | < 100
Cn1c2cnccc2nc1[C@H]1CC[C@H](NC(=O)c2cccc(CNc3cccc4c3C(=O)N(C3CCC(=O)NC3=O)C4=O)c2)CC1 (some centres unmarked) [Example 34] | < 100 | < 100
CCCn1c(C2CCC(NC(=O)c3cccc(CNc4cccc5c4C(=O)N(C4CCC(=O)NC4=O)C5=O)c3)CC2)nc2cccnc21 (centres unmarked) [Example 84] | < 100 | < 100
COc1cnc2sc([C@H]3CC[C@H](C(=O)Nc4cccc(CNc5cccc6c5C(=O)N(C5CCC(=O)NC5=O)C6=O)c4)CC3)nc2c1 (some centres unmarked) [Example 98] | < 100 | < 100
Cn1c(C2CCC(NC(=O)CCCCNc3cccc4c3C(=O)N(C3CCC(=O)NC3=O)C4=O)CC2)nc2ccncc21 (centres unmarked) [Example 8] | < 100 | < 100

— patent US20250361239A1, “PROTEIN DEGRADERS AND USES THEREOF” (ZHUHAI YUFAN BIOTECHNOLOGIES CO., LTD., priority 2022, published 2025)
